The assay deals with G. duodenalis BRIS/91/HEPU/1279. The assay is described as follows: Primary Giardia screen at 10 µM (live-cell imaging, automated counting). The assay is classed as cell-based, Giardia duodenalis. The conditions noted are these: for % Inhibition n=1 48h / % Inhibition n=1 24h: first singlicate assay; for % Inhibition n=2 24h / % Inhibition n=2 48h: re-assessment. The gist of the method: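 One concentration, 10 μM, is screened per compound in singlicate under microaerophilic gas (3% O2, 5% CO2, N2). Inhibition comes from automated image-based counts at 24 and 48 h, relative to 0.2% DMSO controls.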

For `COc1ccc(S(=O)(=O)n2nc(-c3cc(OC)c(OC)c(OC)c3)cc2N)cc1OC` [SN00785320], the “% Inhibition n=1 48h” value is 21.7%. Same read-out and setting: the same measure for `COCCNC(=O)N1Cc2c(C)nn(-c3ccccc3)c2-n2cccc2C1c1cccc(C)c1` (centres unmarked) [SN00785355]: 10.0%; for `CCN1c2cc(C)ccc2-n2cccc2C12CCN(S(=O)(=O)c1ccc(C)cc1)CC2` [SN00785371]: 10.4%; for `CC(C)CCNC(=O)C1(C)CCc2ccccc2C(=O)N1Cc1ccccc1F` (centres unmarked) [SN00785390]: 14.6%.

With `Cc1ccc(C(=O)N2CCN(c3nc4ccccc4n4cccc34)CC2)cc1` [SN00785395], the “% Inhibition n=1 48h” value is recorded as 25.5%. Regarding `Cc1cccc(C)c1NC(=O)Cn1c(=O)n(CCc2c[nH]c3ccccc23)c(=O)c2cccnc21` [SN00785456], the “% Inhibition n=1 48h” value worked out at 0.5%.

Consider `COc1ccc(S(=O)(=O)N2CC=C(C(=O)Nc3ccc(Cl)cc3)CC2)cc1` [SN00785473], for which the “% Inhibition n=1 48h” value is 0.0%.

Consider `COc1ccc(S(=O)(=O)N2CC=C(C(=O)NCc3ccc(C)cc3)CC2)cc1` [SN00785474], for which the “% Inhibition n=1 48h” value is listed as 23.4%. On to `CCC1CCCCN1C(=O)Cn1c(C(=O)OC)cc2occc21` (centres unmarked) [SN00785479], for which the “% Inhibition n=1 48h” value came to 8.8%. Consider `Cn1c(C(=O)N2CCCC(C(=O)NCCc3ccccc3)C2)cc2sccc21` (centres unmarked) [SN00785483], for which the “% Inhibition n=1 48h” value was found to be 4.8%. Take `CCOC(=O)c1cc2n(n1)CC(C)(C(=O)NCCC(C)C)N(CCc1cccs1)C2=O` (centres unmarked) [SN00785530]: the “% Inhibition n=1 48h” value came out at 6.6%. As to `CN(CCCN)C(=O)c1ccc2c(=O)n3c(nc2c1)CCCCC3` [SN00785585], the “% Inhibition n=1 48h” value stood at 25.4%. In the case of `CC1CCc2nn(CC(=O)NC(C)c3ccccc3)cc2C1` (centres unmarked) [SN00785614], the “% Inhibition n=1 48h” value was determined as 0.0%. For `Cc1cc(=O)n2nc(N(C)CC(=O)NC3CCCc4ccccc43)sc2n1` (centres unmarked) [SN00785631], the “% Inhibition n=1 48h” value amounted to 35.0%. `CCCc1cc(=O)n2nc(N(C)CC(=O)NCCCN3CCCC3=O)sc2n1` [SN00785642]: the “% Inhibition n=1 48h” value is recorded as 4.1%.

On to `CCCCCCNC(=O)Cc1c(C)nc2c(-c3ccccc3)c(C)nn2c1C` [SN00785656], for which the “% Inhibition n=1 48h” value was 17.0%.

Consider `CCC(=O)N1N=C2C3CCN(CC3)[C@@H]2[C@@H]1c1cccc(OC)c1OC` [SN00785687], for which the “% Inhibition n=1 48h” value was 13.8%.

Regarding `COc1ccc(C(=O)c2c(N)c(-c3nc(-c4cc(OC)ccc4OC)cs3)c3ccccn23)cc1` [SN00785721], the “% Inhibition n=1 48h” value amounted to 0.0%. In the case of `O=S(=O)(c1ccc(Br)cc1)c1nc(-c2ccccc2)oc1N1CCOCC1` [SN00785745], the “% Inhibition n=1 48h” value is 4.0%.

In the case of `Cc1ccc2nc(C3=C(N)N(C4CCCCCC4)CC3=O)[nH]c2c1` [SN00785773], the “% Inhibition n=1 48h” value is 29.0%. With `Cc1ccc([N+](=O)[O-])cc1N1CC(=O)C(c2nc3ccccc3[nH]2)=C1N` [SN00785776], the “% Inhibition n=1 48h” value was determined as 21.1%. In the case of `CN(C)CCn1c(=O)c2[nH]cnc2n(C)c1=O` [SN00785782], the “% Inhibition n=1 48h” value worked out at 13.4%.

On to `O=C1c2ccccc2C(=O)N1CC(=O)n1nc(-c2cccnc2)nc1NCc1cccs1` [SN00785806], for which the “% Inhibition n=1 48h” value was determined as 3.6%. As for `Cc1cc(N2CCN(c3ccccc3F)CC2)n2cnnc2n1` [SN00785845], the “% Inhibition n=1 48h” value is 30.4%. The same measure, in the same setting: the same measure for `CN(Cc1ccccc1)c1c2c(nc3nncn13)CCC2` [SN00785855]: 14.3%.

Turning to `Cc1ccc2c(c1)N=C(c1ccc(C)o1)N=C(c1cccs1)N2` [SN00785905], the “Average % Inhibition 24h” value was 15.2%, the “% Inhibition n=1 24h” value is reported as 22.4%, the “% Inhibition n=2 24h” value turned out to be 8.0% and the “Average % Inhibition 48h” value came out at 54.6%. Moreover, the “% Inhibition n=1 48h” value was 69.6% and the “% Inhibition n=2 48h” value came out at 39.6%.

Take `Fc1ccc(C2=NC(c3cccs3)=Nc3cc(Cl)ccc3N2)cc1` [SN00785914]: the “% Inhibition n=1 48h” value is recorded as 0.0%.

In the case of `O=C1O[C@@H]2C[C@H]3C[C@@H]2[C@@H]1[C@H]3C(=O)Nc1ccc(C(=O)N2CC=C(c3ccccc3)CC2)cc1` [SN00785926], the “% Inhibition n=1 48h” value worked out at 11.8%. For `CN1CC(c2nc3ccccc3[nH]2)CC1=O` (centres unmarked) [SN00785951], the “% Inhibition n=1 48h” value came out at 0.0%. With `CCCCS(=O)(=O)N1CCC(c2nnnn2-c2ccc(C)cc2)CC1` [SN00785962], the “% Inhibition n=1 48h” value turned out to be 0.0%. As to `Cc1ccccc1NC(=O)c1ccc2c(c1)CCN2S(C)(=O)=O` [SN00785973], the “% Inhibition n=1 48h” value turned out to be 31.2%. `Cc1ccc(CNC(=O)c2ccc3c(c2)CCN3S(=O)(=O)c2ccc(C)cc2)cc1` [SN00785985]: the “% Inhibition n=1 48h” value worked out at 38.5%.

Regarding `Cc1cccc(NC(=O)NC2CCN(c3nc(C)cc(C)n3)CC2)c1` [SN00786006], the “% Inhibition n=1 48h” value is reported as 33.8%. For `CCOc1cc(C2OCCn3c(-c4ccccc4)c4c(=O)n(C)c(=O)n(C)c4c32)ccc1O` (centres unmarked) [SN00786012], the “% Inhibition n=1 48h” value is listed as 8.5%. As to `CCCOc1ccc(C2OCCn3c(-c4ccc(OC)cc4)c4c(=O)n(C)c(=O)n(C)c4c32)cc1` (centres unmarked) [SN00786016], the “% Inhibition n=1 48h” value was 14.8%. In the case of `CC(=O)c1cc2c(cc1NC(=O)c1cn(-c3ccc(F)cc3)nn1)OCO2` [SN00786071], the “% Inhibition n=1 48h” value is given as 7.4%. With `Cc1ccccc1NC(=O)c1nc(S(C)(=O)=O)ncc1N(Cc1ccco1)Cc1sccc1C` [SN00786086], the “% Inhibition n=1 48h” value amounted to 11.7%.

For the compound `CCS(=O)(=O)c1ncc(N(Cc2ccco2)Cc2ccccc2F)c(C(=O)Nc2ccccc2)n1` [SN00786098], the “% Inhibition n=1 48h” value turned out to be 17.4%. Consider `CCn1c(Cn2cccn2)nc2cc(NC(C)=O)ccc21` [SN00786137], for which the “% Inhibition n=1 48h” value was determined as 11.6%. `CCCNC(=O)c1sc(-n2nc(C)c(Cl)c2C)nc1C` [SN00786172]: the “Average % Inhibition 24h” value was determined as 7.3%, the “% Inhibition n=1 24h” value was determined as 14.5%, the “% Inhibition n=2 24h” value was determined as 0.0% and the “Average % Inhibition 48h” value amounted to 27.0%. The “% Inhibition n=1 48h” value came to 52.5% and the “% Inhibition n=2 48h” value was found to be 1.5%. Turning to `Cc1nc(-n2nc(C)c(Cc3ccccc3Cl)c2C)sc1C(=O)NC(C)C` [SN00786185], the “% Inhibition n=1 48h” value was found to be 0.0%. On to `Cc1ccc(CNc2nc(-c3ccco3)nn2C(=O)C(C)C)cc1` [SN00786221], for which the “% Inhibition n=1 48h” value is recorded as 11.1%. On the same count and under the same terms, as for `Cc1ccc(CNc2nc(-c3ccco3)nn2C(=O)c2cccc([N+](=O)[O-])c2)cc1` [SN00786222], the figure is 6.6%; as for `CN(C)C1(CNC(=O)COc2ccc(Br)cc2)CCCCC1` [SN00786247], 5.1%; as for `Cc1ccc(OCC(=O)NCC2(N3CCN(C)CC3)CCCCC2)cc1` [SN00786260], 9.4%. As to `CC1CCCCN1S(=O)(=O)c1ccc(NC(=O)c2cc(-c3cccs3)on2)cc1` (centres unmarked) [SN00786280], the “% Inhibition n=1 48h” value was 10.1%. With `Cc1ccc(NC(=O)c2cc(-c3ccc4c(c3)OCCO4)on2)cc1C` [SN00786283], the “% Inhibition n=1 48h” value came to 2.9%. For the compound `O=C(NCc1ccccc1)c1nc[nH]c1C(=O)NCc1cccc(C(F)(F)F)c1` [SN00786288], the “% Inhibition n=1 48h” value is on record as 20.4%.

Turning to `COCCNC(=O)c1nc[nH]c1C(=O)NC(C)C` [SN00786292], the “% Inhibition n=1 48h” value is recorded as 8.3%. For the compound `CCCCNc1ncccc1-c1nc(-c2ccc(C)cc2)no1` [SN00786331], the “% Inhibition n=1 48h” value was found to be 25.3%. Turning to `Cc1nc(N2CCCCC2)cc(N2CCN(C(=O)c3cccc(F)c3)CC2)n1` [SN00786431], the “% Inhibition n=1 48h” value is 7.0%. As for `Cc1ccc(Nc2cc(N3CCN(S(=O)(=O)c4ccc(C)c(C)c4)CC3)nc(C)n2)cc1` [SN00786472], the “% Inhibition n=1 48h” value is reported as 20.7%. With `Cc1nc(N(C)C)cc(N2CCN(C(=O)Nc3cccc(C(F)(F)F)c3)CC2)n1` [SN00786482], the “Average % Inhibition 24h” value worked out at 10.6%, the “% Inhibition n=1 24h” value is given as 15.1%, the “% Inhibition n=2 24h” value is given as 6.1% and the “Average % Inhibition 48h” value amounted to 29.2%. The “% Inhibition n=1 48h” value was 55.4% and the “% Inhibition n=2 48h” value was determined as 2.9%. Take `COc1cc(NC(=O)N2CCN(c3cc(N(C)C)nc(C)n3)CC2)cc(OC)c1` [SN00786504]: the “Average % Inhibition 24h” value is 4.9%, the “% Inhibition n=1 24h” value was found to be 9.8%, the “% Inhibition n=2 24h” value is recorded as 0.0% and the “Average % Inhibition 48h” value is recorded as 27.5%. The “% Inhibition n=1 48h” value is 55.1% and the “% Inhibition n=2 48h” value came to 0.0%. Consider `CCOC(=O)Cn1c(=O)n(-c2ccccc2)c(=O)c2cc3c(nc21)CC(C)(C)OC3` [SN00786524], for which the “% Inhibition n=1 48h” value is on record as 18.7%. On to `CC1(C)Cc2nc3[nH]c(=O)n(Cc4ccco4)c(=O)c3cc2CO1` [SN00786536], for which the “% Inhibition n=1 48h” value was 7.3%. As for `O=C(Nc1ccc(N2CCn3c(nc4cc(Cl)ccc43)C2)cc1)NC1CCCCC1` [SN00786562], the “% Inhibition n=1 48h” value is 10.0%.

With `O=C(Cc1scnc1-c1cccs1)N1CCN(c2ccccn2)CC1` [SN00786601], the “% Inhibition n=1 48h” value is on record as 0.0%. Turning to `O=S1(=O)C[C@H](NCc2ccccn2)[C@@H](S(=O)(=O)c2ccccc2)C1` [SN00786609], the “% Inhibition n=1 48h” value is reported as 0.0%. On the same count and under the same terms, as for `Cc1csc(-n2nc(C)c(CC(=O)N3CCN(c4ccccc4)CC3)c2O)n1` [SN00786646], the figure is 34.3%. As for `Cc1nn(-c2nc(-c3ccccc3)cs2)c(O)c1CC(=O)N1CCN(c2ccc(F)cc2)CC1` [SN00786652], the “% Inhibition n=1 48h” value was 0.0%.

As for `COc1ccc(NC(=O)c2cc(C(F)(F)F)n(C)n2)cc1` [SN00786766], the “% Inhibition n=1 48h” value was determined as 0.0%. On to `Cc1ccc(C2=CC(c3ccccc3)n3nnnc3N2CC(=O)N2CCN(c3ccccc3)CC2)cc1` (centres unmarked) [SN00786799], for which the “% Inhibition n=1 48h” value amounted to 34.8%.

The values are drawn from publication PMC9775191, “A Subset Screen of the Compounds Australia Scaffold Library Identifies 7-Acylaminodibenzoxazepinones as Potent and Selective Hits for Anti-Giardia Drug Discovery” (Biomedicines, 2022).
